Assay results reported in US9149038B2, “4-amino-6-(heterocyclic)picolinates and 6-amino-2-(heterocyclic)pyrimidine-4-carboxylates and their use as herbicides” (Dow AgroSciences LLC, priority 2013, dated 2015).
Like-named read-outs stand apart in the source and are kept apart here.

System: Wheat and Barley and weed species
Test: Post-Emergent Test III: postemergent herbicidal activity in wheat and barley, visual rating after 21 d and probit GR20/GR50/GR80/GR90 (Tables 9-13)
Assay type: in vivo
Details: for Visual Growth Reduction (%) 21 Days After Application BRSNW: winter, canola; for pest or weed control at 17.5 g/ha / pest or weed control at 35 g/ha / pest or weed control at 70 g/ha: post-emergence, 504 h
From the text: Herbicidal evaluations were made visually on a scale of 0 to 100 where 0 represents no activity and 100 represents complete plant death.
Seeds of the desired test plant species were planted in Sun Gro MetroMix® 306 planting mixture, which typically has a pH of 6.0 to 6.8 and an organic matter content of about 30 percent, in plastic pots with a surface area of 103.2 square centimeters (cm^2). When required to ensure good germination and healthy plants, a fungicide treatment and/or other chemical or physical treatment was applied. The plants were grown for 7-36 days (d) in a greenhouse with an approximate 14 hour (h) photoperiod which was maintained at about 18° C. during the day and 17° C. during the night. Nutrients and water were added on a regular basis and supplemental lighting was provided with overhead metal halide 1000-Watt lamps as necessary. The plants were employed for testing when they reached the second or third true leaf stage.
A weighed amount, determined by the highest rate to be tested, of each test compound was placed in a 25 mL glass vial and was dissolved in 4 mL of a 97:3 v/v mixture of acetone and DMSO to obtain concentrated stock solutions. […] The concentrated stock solutions obtained were diluted with 20 mL of an aqueous mixture containing acetone, water, isopropyl alcohol, DMSO, Agri-Dex crop oil concentrate, and X-77 surfactant in a 48:39:10:1.5:1.5:0.02 v/v ratio to obtain spray solutions containing the highest application rates. Additional application rates were obtained by serial dilution of 12 mL of the high rate solution into a solution containing 2 mL of a 97:3 v/v mixture of acetone and DMSO and 10 mL of an aqueous mixture containing acetone, water, isopropyl alcohol, DMSO, Agri-Dex crop oil concentrate, and X-77 surfactant in a 48:39:10:1.5:1.5:0.02 v/v ratio to obtain ½×, ¼×, ⅛× and 1/16× rates of the high rate. Compound requirements are based upon a 12 mL application volume at a rate of 187 liters per hectare (L/ha). Formulated compounds were applied to the plant material with an overhead Mandel track sprayer equipped with 8002E nozzles calibrated to deliver 187 L/ha over an application area of 0.503 square meters at a spray height of 18 inches (43 cm) above the average plant canopy height. Control plants were sprayed in the same manner with the solvent blank.
The treated plants and control plants were placed in a greenhouse as described above and watered by subirrigation to prevent wash-off of the test compounds. After 21 d, the condition of the test plants as compared with that of the untreated plants was determined visually and scored on a scale of 0 to 100 percent where 0 corresponds to no injury and 100 corresponds to complete kill and are presented as indicated in Table 4.
By applying the well-accepted probit analysis as described by J. Berkson in Journal of the American Statistical Society, 48, 565 (1953) and by D. Finney in “Probit Analysis” Cambridge University Press (1952), herbicidal injury of a specific compound at various rates can be used to calculate GR20, GR50, GR80 and GR90 values, which are defined as growth reduction factors that correspond to the effective dose of herbicide required to provide plant growth reduction (GR) of 20 percent, 50 percent, 80 percent and 90 percent, respectively. Probit analysis was applied to data collected from multiple dose rates of individual compounds utilizing the procedures explained in the following examples. The data for some of the dose rates and analysis of all of the dose rates are captured in the following tables.

Nc1c(F)c(-c2ccc3c(c2)OC(F)(F)O3)nc(C(=O)O)c1Cl [Compound 7]
GR50 ALOMY (ALOMY black-grass (Alopecurus myosuroides), growth reduction of 50%, probit analysis): 16 g ai/ha
GR80 ALOMY (ALOMY black-grass (Alopecurus myosuroides), growth reduction of 80%, probit analysis): 25 g ai/ha
GR90 ALOMY (ALOMY black-grass (Alopecurus myosuroides), growth reduction of 90%, probit analysis): 34 g ai/ha
GR50 APESV (APESV bentgrass (Apera spica-venti), growth reduction of 50%, probit analysis): 30 g ai/ha
GR80 APESV (APESV bentgrass (Apera spica-venti), growth reduction of 80%, probit analysis): 114 g ai/ha
GR90 APESV (APESV bentgrass (Apera spica-venti), growth reduction of 90%, probit analysis): >140 g ai/ha
Visual Growth Reduction (%) 21 Days After Application BROTE (BROTE downy brome (Bromus tectorum), 17.5 g ai/ha): E (45-59)
Visual Growth Reduction (%) 21 Days After Application BROTE (BROTE downy brome (Bromus tectorum), 35 g ai/ha): D (60-74)
Visual Growth Reduction (%) 21 Days After Application BROTE (BROTE downy brome (Bromus tectorum), 70 g ai/ha): A (95-100)
GR50 BROTE (BROTE downy brome (Bromus tectorum), growth reduction of 50%, probit analysis): 15 g ai/ha
GR80 BROTE (BROTE downy brome (Bromus tectorum), growth reduction of 80%, probit analysis): 37 g ai/ha
GR90 BROTE (BROTE downy brome (Bromus tectorum), growth reduction of 90%, probit analysis): 59 g ai/ha
GR10 BRSNW (BRSNW oil seed rape, winter (Brassica napus), GR10, probit analysis): 0.5 g ai/ha
GR20 BRSNW (BRSNW oil seed rape, winter (Brassica napus), growth reduction of 20%, probit analysis): 1 g ai/ha
GR50 BRSNW (BRSNW oil seed rape, winter (Brassica napus), growth reduction of 50%, probit analysis): 5 g ai/ha
GR80 BRSNW (BRSNW oil seed rape, winter (Brassica napus), growth reduction of 80%, probit analysis): 24 g ai/ha
GR90 BRSNW (BRSNW oil seed rape, winter (Brassica napus), growth reduction of 90%, probit analysis): 53 g ai/ha
Visual Growth Reduction (%) 21 Days After Application BRSNW (BRSNW oil seed rape, winter (Brassica napus), 17.5 g ai/ha): D (60-74)
Visual Growth Reduction (%) 21 Days After Application BRSNW (BRSNW oil seed rape, winter (Brassica napus), 35 g ai/ha): C (75-84)
Visual Growth Reduction (%) 21 Days After Application BRSNW (BRSNW oil seed rape, winter (Brassica napus), 70 g ai/ha): A (95-100)
Visual Growth Reduction (%) 21 Days After Application GALAP (GALAP cleavers (Galium aparine), 17.5 g ai/ha): E (45-59)
Visual Growth Reduction (%) 21 Days After Application GALAP (GALAP cleavers (Galium aparine), 35 g ai/ha): D (60-74)
Visual Growth Reduction (%) 21 Days After Application GALAP (GALAP cleavers (Galium aparine), 70 g ai/ha): A (95-100)
GR50 GALAP (GALAP cleavers (Galium aparine), growth reduction of 50%, probit analysis): 12 g ai/ha
GR80 GALAP (GALAP cleavers (Galium aparine), growth reduction of 80%, probit analysis): 31 g ai/ha
GR90 GALAP (GALAP cleavers (Galium aparine), growth reduction of 90%, probit analysis): 52 g ai/ha
GR10 HORVS (HORVS barley, spring (crop), GR10, probit analysis): 1 g ai/ha
GR20 HORVS (HORVS barley, spring (crop), growth reduction of 20%, probit analysis): 2 g ai/ha
pest or weed control at 17.5 g/ha (Hordeum vulgare, HORVS barley, spring (crop), 17.5 g ai/ha, read-out: Visual Growth Reduction (%) 21 Days After Application HORVS): 75 to 84%
pest or weed control at 35 g/ha (Hordeum vulgare, HORVS barley, spring (crop), 35 g ai/ha, read-out: Visual Growth Reduction (%) 21 Days After Application HORVS): 85 to 94%
pest or weed control at 70 g/ha (Hordeum vulgare, HORVS barley, spring (crop), 70 g ai/ha, read-out: Visual Growth Reduction (%) 21 Days After Application HORVS): 85 to 94%
Visual Growth Reduction (%) 21 Days After Application LAMPU (LAMPU purple deadnettle (Lamium purpureum), 17.5 g ai/ha): C (75-84)
Visual Growth Reduction (%) 21 Days After Application LAMPU (LAMPU purple deadnettle (Lamium purpureum), 35 g ai/ha): B (85-94)
Visual Growth Reduction (%) 21 Days After Application LAMPU (LAMPU purple deadnettle (Lamium purpureum), 70 g ai/ha): A (95-100)
GR50 LAMPU (LAMPU purple deadnettle (Lamium purpureum), growth reduction of 50%, probit analysis): 3 g ai/ha
GR80 LAMPU (LAMPU purple deadnettle (Lamium purpureum), growth reduction of 80%, probit analysis): 12 g ai/ha
GR90 LAMPU (LAMPU purple deadnettle (Lamium purpureum), growth reduction of 90%, probit analysis): 27 g ai/ha
GR50 LOLSS (LOLSS ryegrass, growth reduction of 50%, probit analysis): >140 g ai/ha
GR80 LOLSS (LOLSS ryegrass, growth reduction of 80%, probit analysis): >140 g ai/ha
GR90 LOLSS (LOLSS ryegrass, growth reduction of 90%, probit analysis): >140 g ai/ha
Visual Growth Reduction (%) 21 Days After Application PHAMI (PHAMI lesser canary grass (Phalaris minor), 17.5 g ai/ha): C (75-84)
Visual Growth Reduction (%) 21 Days After Application PHAMI (PHAMI lesser canary grass (Phalaris minor), 35 g ai/ha): B (85-94)
Visual Growth Reduction (%) 21 Days After Application PHAMI (PHAMI lesser canary grass (Phalaris minor), 70 g ai/ha): A (95-100)
GR50 PHAMI (PHAMI lesser canary grass (Phalaris minor), growth reduction of 50%, probit analysis): 10 g ai/ha
GR80 PHAMI (PHAMI lesser canary grass (Phalaris minor), growth reduction of 80%, probit analysis): 24 g ai/ha
GR90 PHAMI (PHAMI lesser canary grass (Phalaris minor), growth reduction of 90%, probit analysis): 39 g ai/ha
GR50 SETVI (SETVI green foxtail (Setaria viridis), growth reduction of 50%, probit analysis): 6 g ai/ha
GR80 SETVI (SETVI green foxtail (Setaria viridis), growth reduction of 80%, probit analysis): 13 g ai/ha
GR90 SETVI (SETVI green foxtail (Setaria viridis), growth reduction of 90%, probit analysis): 21 g ai/ha
Visual Growth Reduction (%) 21 Days After Application SINAR (SINAR wild mustard (Sinapis arvensis), 17.5 g ai/ha): C (75-84)
Visual Growth Reduction (%) 21 Days After Application SINAR (SINAR wild mustard (Sinapis arvensis), 35 g ai/ha): B (85-94)
Visual Growth Reduction (%) 21 Days After Application SINAR (SINAR wild mustard (Sinapis arvensis), 70 g ai/ha): A (95-100)
GR50 SINAR (SINAR wild mustard (Sinapis arvensis), growth reduction of 50%, probit analysis): 3 g ai/ha
GR80 SINAR (SINAR wild mustard (Sinapis arvensis), growth reduction of 80%, probit analysis): 15 g ai/ha
GR90 SINAR (SINAR wild mustard (Sinapis arvensis), growth reduction of 90%, probit analysis): 36 g ai/ha
GR10 TRZAS (TRZAS wheat, spring (crop), GR10, probit analysis): 2 g ai/ha
GR20 TRZAS (TRZAS wheat, spring (crop), growth reduction of 20%, probit analysis): 3 g ai/ha
pest or weed control at 17.5 g/ha (Triticum aestivum, TRZAS wheat, spring (crop), 17.5 g ai/ha, read-out: Visual Growth Reduction (%) 21 Days After Application TRZAS): 75 to 84%
pest or weed control at 35 g/ha (Triticum aestivum, TRZAS wheat, spring (crop), 35 g ai/ha, read-out: Visual Growth Reduction (%) 21 Days After Application TRZAS): 85 to 94%
pest or weed control at 70 g/ha (Triticum aestivum, TRZAS wheat, spring (crop), 70 g ai/ha, read-out: Visual Growth Reduction (%) 21 Days After Application TRZAS): 85 to 94%
pest or weed control at 17.5 g/ha (ALOMY black-grass (Alopecurus myosuroides), 17.5 g ai/ha, read-out: Visual Growth Reduction (%) 21 Days After Application ALOMY): 45 to 59%
pest or weed control at 35 g/ha (ALOMY black-grass (Alopecurus myosuroides), 35 g ai/ha, read-out: Visual Growth Reduction (%) 21 Days After Application ALOMY): 85 to 94%
pest or weed control at 70 g/ha (ALOMY black-grass (Alopecurus myosuroides), 70 g ai/ha, read-out: Visual Growth Reduction (%) 21 Days After Application ALOMY): 95 to 100%
pest or weed control at 17.5 g/ha (APESV bentgrass (Apera spica-venti), 17.5 g ai/ha, read-out: Visual Growth Reduction (%) 21 Days After Application APESV): 45 to 59%
pest or weed control at 35 g/ha (APESV bentgrass (Apera spica-venti), 35 g ai/ha, read-out: Visual Growth Reduction (%) 21 Days After Application APESV): 60 to 74%
pest or weed control at 70 g/ha (APESV bentgrass (Apera spica-venti), 70 g ai/ha, read-out: Visual Growth Reduction (%) 21 Days After Application APESV): 75 to 84%
pest or weed control at 17.5 g/ha (LOLSS ryegrass, 17.5 g ai/ha, read-out: Visual Growth Reduction (%) 21 Days After Application LOLSS): 30 to 44%
pest or weed control at 35 g/ha (LOLSS ryegrass, 35 g ai/ha, read-out: Visual Growth Reduction (%) 21 Days After Application LOLSS): 45 to 59%
pest or weed control at 70 g/ha (LOLSS ryegrass, 70 g ai/ha, read-out: Visual Growth Reduction (%) 21 Days After Application LOLSS): 60 to 74%
pest or weed control at 17.5 g/ha (SETVI green foxtail (Setaria viridis), 17.5 g ai/ha, read-out: Visual Growth Reduction (%) 21 Days After Application SETVI): 60 to 74%
pest or weed control at 35 g/ha (SETVI green foxtail (Setaria viridis), 35 g ai/ha, read-out: Visual Growth Reduction (%) 21 Days After Application SETVI): 75 to 84%
pest or weed control at 70 g/ha (SETVI green foxtail (Setaria viridis), 70 g ai/ha, read-out: Visual Growth Reduction (%) 21 Days After Application SETVI): 85 to 94%
